≈ marks a conversion by molar mass, not a printed value.
Columns and labels:
Assay type in all cases: cell-based
K. pneumoniae = test: Broth dilution MIC determination (CLSI) against K. pneumoniae strains
Source text: (§1) Minimum inhibitory concentrations (MICs) for macrolides described herein have been determined for unique strains of S. aureus, S. pneumoniae, S. pyogenes, E. faecalis, E. coli, A. baumannii, K. pneumoniae, P. aeruginosa, and H. influenzae, including several multidrug-resistant strains, with a special focus on macrolide resistant mechanisms. Azithromycin and solithromycin were included as control compounds. CLSI standard procedures for broth dilution MIC determination were used.

S. pyogenes = test: Broth dilution MIC determination (CLSI) against S. pyogenes strains
Source text: as §1, with “used. Data for exemplary compounds described herein is shown in Tables M1-M7 and in Tables N1-N4.” for “used.”

E. faecalis = test: Broth dilution MIC determination (CLSI) against E. faecalis strains
Source text: as §1, with “used. Data for exemplary compounds described herein is shown in Tables M1-M7 and in Tables N1-N4.” for “used.”

A. baumannii = test: Broth dilution MIC determination (CLSI) against A. baumannii strains
Source text: as §1, with “used. Data for exemplary compounds described herein is shown in Tables M1-M7 and in Tables N1-N4.” for “used.”

S. pneumoniae = test: Broth dilution MIC determination (CLSI) against S. pneumoniae strains
Source text: as §1, with “used. Data for exemplary compounds described herein is shown in Tables M1-M7 and in Tables N1-N4.” for “used.”

S. aureus = test: Broth dilution MIC determination (CLSI) against S. aureus strains
Source text: as §1, with “used. Data for exemplary compounds described herein is shown in Tables M1-M7 and in Tables N1-N4.” for “used.”

P. aeruginosa = test: Broth dilution MIC determination (CLSI) against P. aeruginosa strains
Source text: as §1, with “used. Data for exemplary compounds described herein is shown in Tables M1-M7 and in Tables N1-N4.” for “used.”

E. coli = test: Broth dilution MIC determination (CLSI) against E. coli strains
Source text: as §1, with “used. Data for exemplary compounds described herein is shown in Tables M1-M7 and in Tables N1-N4.” for “used.”

[1] = K pneumomae ATCC10031, strain MP-14 (Table N2)
[2] = K. pneumoniae clinical, strain MP546 (Table N2)
[3] = K. pneumoniae clinical, strain MP548 (Table N2)
[4] = S. pyogenes ATCC19615, strain MP-19 (Table N2)
[5] = S. pyogenes mac resistant, strain MP-625 UNT-014 (Table N2)
[6] = E. faecalis ATCC29212, strain MP-24 (Table N2)
[7] = E. faecalis van resistant, strain UNT-039 (Table N2)
[8] = A. baumannii ATCC19606, strain MP-15 (Table N2)
[9] = A. baumannii clinical, strain MP576 (Table N2)
[10] = A. baumannii clinical, strain MP577 (Table N2)
[11] = S. pneumoniae ATCC49619, strain MP-21 (Table N2)
[12] = S. pneumoniae mefA, strain MP-626 UNT-038 (Table N2)
[13] = S. pneumoniae mefA, strain MP-627 UNT-039 (Table N2)
[14] = S. aureus (MRSA) GISA USA600, strain MP-619 UNT-120 (Table N2)
[15] = S. aureus (MRSA) ST-228 cErm, strain MP-513 (Table N2)
[16] = S. aureus (MRSA) USA100, strain MP-618 UNT-096 (Table N2)
[17] = S. aureus (MRSA) USA300, strain MP-549 (Table N2)
[18] = S. aureus (MRSA) ermA phenotype, strain MP-620 UNT-146 (Table N2)
[19] = S. aureus ATCC29213, strain MP-12 (Table N2)
[20] = S. aureus ATCCBAA-977, strain MP-17 (Table N2)
[21] = P. aeruginosa ATCC27853, strain MP-3 (Table N2)
[22] = P. aeruginosa PAO1, strain MP-7 (Table N2)
[23] = P. aeruginosa PAO1:mex, strain MP-8 (Table N2)
[24] = E. coli ATCC25922, strain MP-4 (Table N2)
[25] = E. coli ATCC25922:tolC, strain MP-9 (Table N2)
[26] = E. coli clinical, strain MP541 (Table N2)
[27] = E. coli clinical-cErm, strain MP532 (Table N2)

CCC1OC(=O)C(C)C(=O)C(C)C(OC2OC(C)CC(N(CCO)CCO)C2O)C(C)(OC)CC(C)CNC(C)C2N(CCCCn3cc(-c4cccc(N)c4)nn3)C(=O)OC12C (stereo not drawn) [FSM-120379]
MIC (K. pneumoniae; [1]): 32 µg/mL (≈ 36 µM)
MIC (K. pneumoniae; [2]): >64 µg/mL
MIC (K. pneumoniae; [3]): >64 µg/mL
MIC (S. pyogenes; [4]): 4 µg/mL (≈ 4.5 µM)
MIC (S. pyogenes; [5]): 16 µg/mL (≈ 18 µM)
MIC (E. faecalis; [6]): 32 µg/mL (≈ 36 µM)
MIC (E. faecalis; [7]): >64 µg/mL
MIC (A. baumannii; [8]): >64 µg/mL
MIC (A. baumannii; [9]): >64 µg/mL
MIC (A. baumannii; [10]): >64 µg/mL
MIC (S. pneumoniae; [11]): 2 µg/mL (≈ 2.25 µM)
MIC (S. pneumoniae; [12]): 1 µg/mL (≈ 1.13 µM)
MIC (S. pneumoniae; [13]): 1 µg/mL (≈ 1.13 µM)
MIC (S. aureus; [14]): >64 µg/mL
MIC (S. aureus; [15]): >64 µg/mL
MIC (S. aureus; [16]): >64 µg/mL
MIC (S. aureus; [17]): >64 µg/mL
MIC (S. aureus; [18]): >64 µg/mL
MIC (S. aureus; [19]): >64 µg/mL
MIC (S. aureus; [20]): >64 µg/mL
MIC (P. aeruginosa; [21]): >64 µg/mL
MIC (P. aeruginosa; [22]): >64 µg/mL
MIC (P. aeruginosa; [23]): >64 µg/mL
MIC (E. coli; [24]): >64 µg/mL
MIC (E. coli; [25]): 32 µg/mL (≈ 36 µM)
MIC (E. coli; [26]): >64 µg/mL
MIC (E. coli; [27]): >64 µg/mL

CCC1OC(=O)C(C)C(=O)C(C)C(OC2OC(C)CC(N3CCOC3CO)C2O)C(C)(OC)CC(C)CNC(C)C2N(CCCCn3cc(-c4cccc(N)c4)nn3)C(=O)OC12C (stereo not drawn) [FSM-120380]
MIC (K. pneumoniae; [1]): >64 µg/mL
MIC (K. pneumoniae; [2]): >64 µg/mL
MIC (K. pneumoniae; [3]): >64 µg/mL
MIC (S. pyogenes; [4]): 8 µg/mL (≈ 9.03 µM)
MIC (S. pyogenes; [5]): 32 µg/mL (≈ 36.1 µM)
MIC (E. faecalis; [6]): 64 µg/mL (≈ 72.2 µM)
MIC (E. faecalis; [7]): >64 µg/mL
MIC (A. baumannii; [8]): >64 µg/mL
MIC (A. baumannii; [9]): >64 µg/mL
MIC (A. baumannii; [10]): >64 µg/mL
MIC (S. pneumoniae; [11]): 8 µg/mL (≈ 9.03 µM)
MIC (S. pneumoniae; [12]): 4 µg/mL (≈ 4.51 µM)
MIC (S. pneumoniae; [13]): 4 µg/mL (≈ 4.51 µM)
MIC (S. aureus; [14]): >64 µg/mL
MIC (S. aureus; [15]): >64 µg/mL
MIC (S. aureus; [16]): >64 µg/mL
MIC (S. aureus; [17]): >64 µg/mL
MIC (S. aureus; [18]): >64 µg/mL
MIC (S. aureus; [19]): >64 µg/mL
MIC (S. aureus; [20]): >64 µg/mL
MIC (P. aeruginosa; [21]): >64 µg/mL
MIC (P. aeruginosa; [22]): >64 µg/mL
MIC (P. aeruginosa; [23]): >64 µg/mL
MIC (E. coli; [24]): >64 µg/mL
MIC (E. coli; [25]): 32 µg/mL (≈ 36.1 µM)
MIC (E. coli; [26]): >64 µg/mL
MIC (E. coli; [27]): >64 µg/mL
